Test results as given in patent US11486825B1, “Devices and methods for analysis of biological matter using plasmon resonance” (THE FLORIDA INTERNATIONAL UNIVERSITY BOARD OF TRUSTEES, priority 2022, dated 2022).

System: contracting CMs (cardiomyocytes)
Test: P-CeG (plasmonic cardio-eukaryography) signal of contracting cardiomyocytes cultured on gold SPR sensor, consecutive drug injections
Type: cell-based
Source text: The device as shown in FIGS. 1(a) and 1(c) was used for experiments and studies. The device had dimensions of 12 cm×7.5 cm×5 cm and had micro LEDs, LED splitters, micro prisms, micro polarizers, and micro detectors that induced plasmonic waveguides and detected changes in the electrical/mechanical activity of a cell membrane. Cellular function of mechanical and electrical origins was filtered and sorted using software in operable communication with the sensing platform, and was then compared to the physiological parameters of a healthy cell. […] The hinged cap (fluidic module) had heavy-duty gaskets made from PDMS attached thereto. Micropumps and microtubing on the were used to drive the flow of the cell medium from its attached reservoir. The base of the device acted as a Faraday cage for the micro settings of plasmonic induction and detection, as well as related PCB boards and computer interface connectors of the sensing platform. The refraction index of the prisms was […] (each prism was a BK7 prism from a BI2000 device (Biosensing Instruments, AZ). The cell-SPR model discussed herein with reference to FIGS. 2(a)-2(f) was used as the cell-SPR model for experiments.
Empirical P-CeG data was correlated to the mathematical model of charge distribution near CM's cell membrane. FIG. 10(a) illustrates the four phases in a CM's action potential, field potential, and force of contraction profile (top to bottom, respectively) over time. The dashed vertical lines show phases 0, 1, 2, and 3 of the CM's electromechanical activities. […] Values were extracted using equations from the cell-SPR model. […] Arrows from left to right in the bottom graph depict the depolarization amplitude (DA), field potential duration (FPD), and the repolarization amplitude (RA) as the main features of a CM's field potential. These are also elaborated on in FIG. 10(e) and FIG. 10(f).
Feature extraction was performed on a P-CeG signal and its correlated charge profile of contracting CMs. FIGS. 11(a), 11(b), and 11(c) show amplitude, full width at half maximum (FWHM), and inter-beat intervals (IBI), respectively, for a 100-second epoch from the P-CeG signal obtained from 12 CM-cultured gold sensors. The high variability of values across different sensors is due to the selected methodology for cell isolation and non-ideal experimental conditions (room temperature and without CO2). FIGS. 11(d), 11(e), and 11(f) show DA, RA, and FPD of contracting CMs obtained from their charge profile.
Analysis was performed using blebbistatin as the cells to be analyzed. Consecutive injections of 1 micromolar (04), 3 μM, 5 μM, 7 and 9 μM blebbistatin were performed, and the P-CeG signals were recorded and analyzed. […] A decrease of the control sample's amplitude and high variability in the FWHM of data with time indicate decreased cellular functionality due to non-ideal experimental conditions. Average data are reported as mean±std: 1-way ANOVA, p<0.0001, 95% CI.
Analysis was performed using verapamil as the cells to be analyzed. Consecutive injections of 50 nanomolar (nM), 100 nM, 200 nM, and 500 nM verapamil were performed, and the P-CeG signals were recorded and analyzed. […] Average data are reported as mean±std: 1-way ANOVA, p<0.0001, 95% CI. […] Referring to FIGS. 14(k) and 14(l), an increase in FPD and FWHM of the signals is distinctly observable with increasing verapamil concentrations.
Analysis was performed using caffeine as the cells to be analyzed. Consecutive injections of 2 millimolar (mM), 4 mM, 6 mM, and 8 mM caffeine were performed, and the P-CeG signals were recorded and analyzed. […] Average data are reported as mean±std: 1-way ANOVA, p<0.0001, 95% CI.

COc1ccc(CCN(C)CCCC(C#N)(c2ccc(OC)c(OC)c2)C(C)C)cc1OC (stereo not drawn) [verapamil]
P-CeG signal amplitude (refractive index change) (consecutive injections of 50, 100, 200 and 500 nM verapamil vs control, FIGS. 14(a), 14(b), 14(d)): sharp decrease in signal amplitude
peak amplitudes (normalized refractive angle change) (increasing verapamil concentration 50-500 nM, FIG. 14(h)): decreased
FWHM duration (increasing verapamil concentration 50-500 nM, FIG. 14(i)): slightly increases before it becomes undetectable and is counted as zero
cell signaling rate (action potential per minute, APM) (increasing verapamil concentration 50-500 nM, FIG. 14(j)): decreased
depolarization amplitude (DA) (increasing verapamil concentrations 50-500 nM, FIG. 14(e)): no significant difference
repolarization amplitude (RA) (increasing verapamil concentrations 50-500 nM, FIG. 14(f)): no significant difference
field potential duration (FPD) (increasing verapamil concentrations 50-500 nM, FIG. 14(g)): showed an increase

Cc1ccc2c(c1)C(=O)C1(O)CCN(c3ccccc3)C1=N2 (stereo not drawn) [blebbistatin]
P-CeG signal amplitude (refractive index change) (consecutive injections of 1, 3, 5, 7 and 9 μM blebbistatin vs control, FIGS. 13(a), 13(b), 13(d)): continuous decrease in signal amplitude
signal's peak amplitudes (normalized refractive angle change) (five concentrations of blebbistatin 1-9 μM, FIG. 13(i)): decreased
FWHM duration (five concentrations of blebbistatin 1-9 μM, FIG. 13(j)): higher variability
cell signaling rate (action potential per minute, APM) (five concentrations of blebbistatin 1-9 μM, FIG. 13(k)): relatively unchanged
depolarization amplitude (DA) (increasing blebbistatin concentrations 1-9 μM, FIG. 13(f)): no significant difference
repolarization amplitude (RA) (increasing blebbistatin concentrations 1-9 μM, FIG. 13(g)): no significant difference
field potential duration (FPD) (increasing blebbistatin concentrations 1-9 μM, FIG. 13(h)): showed a decrease

Cn1c(=O)c2c(ncn2C)n(C)c1=O [caffeine]
P-CeG signal amplitude (refractive index change) (consecutive injections of 2, 4, 6 and 8 mM caffeine vs control, FIGS. 15(a), 15(b), 15(d)): presence of detectable signal amplitude
peak amplitudes (normalized refractive angle change) (increased caffeine concentrations 2-8 mM, FIG. 15(i)): relatively unchanged
FWHM duration (increased caffeine concentrations 2-8 mM, FIG. 15(j)): relatively unchanged
cell signaling rate (action potential per minute, APM) (increased caffeine concentrations 2-8 mM, FIG. 15(k)): decreases
depolarization amplitude (DA) (increasing caffeine concentrations 2-8 mM, FIG. 15(f)): no significant difference
repolarization amplitude (RA) (increasing caffeine concentrations 2-8 mM, FIG. 15(g)): no significant difference
field potential duration (FPD) (increasing caffeine concentrations 2-8 mM, FIG. 15(h)): slight increase
